Experimental data published in patent US10710996B2, “Pyrido-azaheterecydic compound and preparation method and use thereof” (SHANGHAI INSTITUTE OF MATERIA MEDICA, CHINESE ACADEMY OF …, priority 2015, dated 2020).

Columns and labels:
[1] = target: T1, c-Met kinase (Homo sapiens, UniProt P08581); experiment: Inhibitory effect on c-Met kinase activity at molecular level (ELISA); type: biochemical;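 note: recombinant c-Met kinase domain with 5 µM ATP, 1 h at 37 °C, substrate phosphorylation detected by anti-phosphotyrosine PY99 ELISA at 490 nm versus DMSO negative control, ATP-free wells as blank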
T1 construct: c-Met kinase domain recombinant protein diluted with 49 μL of the reaction buffer was added
T1 sequence (P08581 1078-1345 limits assumed): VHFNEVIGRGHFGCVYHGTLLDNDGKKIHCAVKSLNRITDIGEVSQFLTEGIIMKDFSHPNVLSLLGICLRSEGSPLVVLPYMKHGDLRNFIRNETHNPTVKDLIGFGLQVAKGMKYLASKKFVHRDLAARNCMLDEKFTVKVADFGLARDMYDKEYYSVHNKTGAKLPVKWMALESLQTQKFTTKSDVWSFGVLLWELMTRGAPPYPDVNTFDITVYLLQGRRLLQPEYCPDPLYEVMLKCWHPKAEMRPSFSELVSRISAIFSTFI
Experimental: Experiment for Preliminarily Evaluating the Inhibitory Effect on the Activity of Receptor Tyrosine Kinase c-Met at Molecular Level
After discarding the liquid in the wells, the plate was washed with T-PBS (0.1% Tween-20 in PBS) in an amount of 200 μL/well three times, each for 5 minutes. The ELISA plate was dried in an oven at 37° C. for 1-2 hours. 50 μl of adenosine triphosphate (ATP) solution diluted with reaction buffer (50 mM 4-hydroxyethylpiperazine ethanesulfonic acid (HEPES) pH 7.4, 50 mM MgCl2, 0.5 mM MnCl2, 0.2 mM Na3VO4, 1 mM dithiothreitol (DTT)) to a final concentration of 5 μM was added to each well. The compounds were diluted to an appropriate concentration with DMSO (1 μL/well) or a solution containing DMSO in a corresponding concentration (negative control well), and then c-Met kinase domain recombinant protein diluted with 49 μL of the reaction buffer was added therein to initiate the reaction, with two ATP-free control wells for each test. The plate was placed in a shaker (100 rpm) at 37° C. for reacting 1 hour, and washed with T-PBS three times. Primary antibody PY99 diluent was added in an amount of 100 μL/well to allow the reaction in a shaker at 37° C. for 0.5 hour, and then the plate was washed with T-PBS three times. Then the secondary antibody horseradish peroxidase labeled goat anti-mouse IgG diluent was added in an amount of 100 μL/well, and the plate was placed in a shaker at 37° C. for reacting 0.5 hour, and then washed with T-PBS three times. 2 mg/ml of o-phenylenediamine (OPD) coloring solution (diluted with 0.1 M citric acid-sodium citrate buffer (pH=5.4) containing 0.03% H2O2) was then added at 100 μL/well and reacted at 25° C. for 1-10 min with light blocked (ultrasound was required to dissolve OPD, the coloring solution was prepared when needed). The reaction was stopped by adding 2 M of H2SO4 in an amount of 50 μL/well, and a wavelength-adjustable microplate reader SPECTRA MAX 190 was read at 490 nm.
The inhibition rate of the sample was calculated by the following equation:

[2] = tested on: EBC-1 cells; experiment: Inhibition of c-Met-mediated EBC-1 cell proliferation (SRB staining); type: cell-based; conditions: Homo sapiens, 72 hours treatment
Experimental: The inhibitory effect of the compounds on the growth of non-small cell cancer EBC-1 cell (a cell line in which Met is continually activated due to the amplification of MET gene, and is a Met-dependent tumor cell line) was measured by sulforhodamine B (SRB) staining assay. A certain amount of EBC-1 cells in their logarithmic growth phase were seeded in 96-well plates at 90 μL per well and cultured overnight, then 10 μL of different concentrations of compounds or solvent control were added thereto, three wells for each concentration. After treated by the compound for 72 hours, the adherent cells were removed of culture medium and fixed with 10% (w/v) trichloroacetic acid (100 μL/well) at 4° C. for 1 hr followed by rinsing with distilled water five times. After drying at room temperature, 100 μL of SRB solution (dissolved in 1% glacial acetic acid at 4 mg/mL) was added to each well to incubate and stain the cells for 15 min at room temperature, then unbound SRB was washed off with 1% glacial acetic acid for five times. After drying at room temperature, 100 μL of 10 mM Tris solution was added to each well. The optical density (OD value) at 515 nm was read on a VERSMax microplate reader. […] The experiment was repeated twice. The IC50 data was calculated as a range based on the test results of concentrations set in the initial screening test.

Question: How did the IC50 [1] turn out when CS(=O)(=O)n1cc(-c2cc3nccc(Oc4ccc(NC(=O)C5(C(=O)Nc6ccc(F)cc6)CC5)cc4F)c3cn2)cn1 [Compound 40S, N-(3-fluoro-4-((7-(1-(methylsulfonyl)-1H-pyrazol-4-yl)-1,6-naphthyridin-4-yl)oxy)phenyl)-N-(4-fluorophenyl) cyclopropyl-1,1-dicarboxamide] was run?
Answer: The IC50 was 1 to 10 nM.

Question: And the IC50 [2]?
Answer: Its IC50 is 10 to 100 nM.

Question: What does the source list for O=C(Nc1ccc(F)c(F)c1)C1(C(=O)Nc2ccc(Oc3ccnc4cc(OCCN5CCOCC5)ncc34)c(F)c2)CC1 [Compound 23S, N-(3,4-difluorophenyl)-N-(3-fluoro-4-((7-(2-morpholinoethoxy)-1,6-naphthyridin-4-yl)oxy)phenyl) cyclopropyl-1,1-dicarboxamide]?
Answer: IC50 [1]: 1 to 10 nM; IC50 [2]: 100 to 1000 nM

Question: O=C(Nc1ccc(Oc2ccnc3cc(OCCN4CCOCC4)ncc23)c(F)c1)c1cccn(-c2ccc(F)cc2)c1=O [Compound 15S, N-(3-fluoro-4-((7-(2-morpholinoethoxy)-1,6-naphthyridin-4-yl)oxy)phenyl)-1-(4-fluorophenyl)-2-oxo-1,2-dihydropyridine-3-carboxamide] was tested. Which IC50 [1] did it give?
Answer: The IC50 was 1 to 10 nM.

Question: What about the IC50 [2] of the same molecule?
Answer: The IC50 was 10 to 100 nM.

Question: Which results are given for O=C(Nc1ccc(F)cc1)C1(C(=O)Nc2ccc(Oc3ccnc4cc(-c5cnn(C6CCNCC6)c5)ncc34)c(F)c2)CC1 [Compound 42S, N-(3-fluoro-4-((7-(1-(piperidin-4-yl)-1H-pyrazol-4-yl)-1,6-naphthyridin-4-yl)oxy)phenyl)-N-(4-fluorophenyl) cyclopropyl-1,1-dicarboxamide]?
Answer: IC50 [1]: 1 to 10 nM; IC50 [2]: 1 to 10 nM

Question: How did the IC50 [1] turn out when Cc1noc(C)c1-c1cc2nccc(Oc3ccc(NC(=O)C4(C(=O)Nc5ccc(F)cc5)CC4)cc3F)c2cn1 [Compound 45S, N-(4-((7-(3,5-dimethylisoxazol-4-yl)-1,6-naphthyridin-4-yl)oxy)-3-fluorophenyl)-N-(4-fluorophenyl) cyclopropyl-1,1-dicarboxamide] was run?
Answer: The IC50 was 100 to 1000 nM.

Question: And the IC50 [2]?
Answer: Its IC50 is 1000 to 10000 nM.

Question: What does the source list for O=C(Nc1ccc(F)cc1)C1(C(=O)Nc2ccc(Oc3ccnc4nc(NCCCN5CCOCC5)cnc34)c(F)c2)CC1 [Compound 62S, N-(3-fluoro-4-((3-((3-morpholinopropyl)amino)pyrido[2,3-b]pyrazin-8-yl)oxy)phenyl)-N-(4-fluorophenyl) cyclopropyl-1,1-dicarboxamide]?
Answer: IC50 [1]: 10 to 100 nM; IC50 [2]: 1000 to 10000 nM

Question: For O=C(Nc1ccc(F)cc1)C1(C(=O)Nc2ccc(Oc3ccnc4ncc(Cl)nc34)c(F)c2)CC1 [Compound 56S], which IC50 [1] is on record?
Answer: Its IC50 is 100 to 1000 nM.

Question: What about the IC50 [2] of the same molecule?
Answer: The IC50 was 1000 to 10000 nM.

Question: Which results are given for O=C(Nc1ccc(Oc2ccnc3cc(OCCN4CCOCC4)ncc23)c(F)c1)c1c[nH]cc(-c2ccccc2)c1=O [Compound 20S, N-(3-fluoro-4-((7-(2-morpholinoethoxy)-1,6-naphthyridin-4-yl)oxy)phenyl)-4-oxo-5-phenyl-1,4-dihydropyridine-3-carboxamide]?
Answer: IC50 [1]: 1 to 10 nM; IC50 [2]: 10 to 100 nM

Question: Which IC50 [1] does the source give for O=C(Nc1ccc(F)cc1)C1(C(=O)Nc2ccc(Oc3ccnc4cc(OCCc5ccncc5)ncc34)c(F)c2)CC1 [Compound 25S, N-(3-fluoro-4-((7-(2-(pyridin-4-yl)ethoxy)-1,6-naphthyridin-4-yl)oxy)phenyl)-N-(4-fluorophenyl)cyclopropyl-1,1-dicarboxamide] here?
Answer: The IC50 was 1 to 10 nM.

Question: What about the IC50 [2] of the same molecule?
Answer: Its IC50 is 100 to 1000 nM.

Question: Which results are given for O=C(Nc1ccc(F)cc1)C1(C(=O)Nc2ccc(Oc3ccnc4nc(N5CCNCC5)cnc34)c(F)c2)CC1 [Compound 64S, N-(4-((3-piperazinyl-pyrido[2,3-b]pyrazin-8-yl)oxy)-3-fluorophenyl)-N-(4-fluorophenyl)cyclopropyl-1,1-dicarboxamide]?
Answer: IC50 [1]: 1 to 10 nM; IC50 [2]: 1000 to 10000 nM

Question: Which IC50 [1] does the source give for O=C(Nc1ccc(F)cc1)C1(C(=O)Nc2ccc(Oc3ccnc4nc(N5CCOCC5)cnc34)c(F)c2)CC1 [Compound 57S] here?
Answer: Its IC50 is 10 to 100 nM.

Question: And the IC50 [2]?
Answer: The IC50 was 1000 to 10000 nM.

Question: Which IC50 [1] does the source give for O=C(Nc1ccc(F)cc1)C1(C(=O)Nc2ccc(Oc3ccnc4cc(Cl)ncc34)c(F)c2)CC1 [Compound 1S, N-(4-((7-chloro-1,6-naphthyridin-4-yl)oxy)-3-fluorophenyl)-N-(4-fluorophenyl) cyclopropyl-1,1-dicarboxamide] here?
Answer: Its IC50 is 1000 to 10000 nM.

Question: What about the IC50 [2] of the same molecule?
Answer: Its IC50 is 100 to 1000 nM.

Question: For O=C(Nc1ccc(F)cc1)C1(C(=O)Nc2ccc(Oc3ccnc4cc(OCCN5CCOCC5)ncc34)cc2)CC1 [Compound 12S, N-(4-fluorophenyl)-N-(4-((7-(2-morpholinoethoxy)-1,6-naphthyridin-4-yl)oxy)phenyl)cyclopropyl-1,1-dicarboxamide], which IC50 [1] is on record?
Answer: The IC50 was 1 to 10 nM.

Question: And the IC50 [2]?
Answer: Its IC50 is 100 to 1000 nM.

Question: What does the source list for CC(C)N1CCC(n2cc(-c3cc4nccc(Oc5ccc(NC(=O)C6(C(=O)Nc7ccc(F)cc7)CC6)cc5F)c4cn3)cn2)CC1 [Compound 43S, N-(3-fluoro-4-((7-(1-(1-isopropylpiperidin-4-yl)-1H-pyrazol-4-yl)-1,6-naphthyridin-4-yl)oxy)phenyl)-N-(4-fluorophenyl)cyclopropyl-1,1-dicarboxamide]?
Answer: IC50 [1]: 1 to 10 nM; IC50 [2]: 100 to 1000 nM

Question: With O=C(Nc1ccc(F)cc1)C1(C(=O)Nc2ccc(Oc3ccnc4nc(Cl)cnc34)c(F)c2)CC1 [Compound 55S, N-(4-((3-chloropyrido[2,3-b]pyrazin-8-yl)oxy)-3-fluorophenyl)-N-(4-fluorophenyl)cyclopropyl-1,1-dicarboxamide] as the molecule, how does the IC50 [1] read?
Answer: The IC50 was 10 to 100 nM.

Question: What about the IC50 [2] of the same molecule?
Answer: Its IC50 is 1000 to 10000 nM.

Question: What does the source list for O=C(Nc1ccc(F)cc1)C1(C(=O)Nc2ccc(Oc3ccnc4ncc(OCCCN5CCOCC5)nc34)c(F)c2)CC1 [Compound 68S, N-(3-fluoro-4-((2-(3-morpholinopropoxy)pyrido[2,3-b]pyrazin-8-yl)oxy)phenyl)-N-(4-fluorophenyl)cyclopropyl-1,1-dicarboxamide]?
Answer: IC50 [1]: 1000 to 10000 nM; IC50 [2]: 1000 to 10000 nM

Question: What does the source list for O=C(Nc1ccc(F)cc1)C1(C(=O)Nc2ccc(Oc3ccnc4cc(Cn5ccnc5)ncc34)c(F)c2)CC1 [Compound 44S, N-(4-((7-((1H-imidazol-1-yl)methyl)-1,6-naphthyridin-4-yl)oxy)-3-fluorophenyl)-N-(4-fluorophenyl)cyclopropyl-1,1-dicarboxamide]?
Answer: IC50 [1]: 10 to 100 nM; IC50 [2]: 100 to 1000 nM

Question: How did the IC50 [1] turn out when O=C(Nc1ccc(Oc2ccnc3cc(OCCN4CCOCC4)ncc23)c(F)c1)c1c[nH]cc(-c2ccc(F)cc2)c1=O [Compound 22S, N-(3-fluoro-4-((7-(2-morpholinoethoxy)-1,6-naphthyridin-4-yl)oxy)phenyl)-5-(4-fluorophenyl)-4-oxo-1,4-dihydropyridine-3-carboxamide] was run?
Answer: The IC50 was 1 to 10 nM.

Question: And the IC50 [2]?
Answer: The IC50 was 10 to 100 nM.

Question: Which IC50 [1] does the source give for CN1CCN(CCOc2cc3nccc(Oc4ccc(NC(=O)C5(C(=O)Nc6ccc(F)cc6)CC5)cc4F)c3cn2)CC1 [Compound 11S, N-(3-fluoro-4-((7-(2-(4-methylpiperazin-1-yl)ethoxy)-1,6-naphthyridin-4-yl)oxy)phenyl)-N-(4-fluorophenyl) cyclopropyl-1,1-dicarboxamide] here?
Answer: Its IC50 is 1 to 10 nM.

Question: What about the IC50 [2] of the same molecule?
Answer: Its IC50 is 100 to 1000 nM.

Question: Which results are given for Cn1cc(-c2cc3nccc(Oc4ccc(NC(=O)C5(C(=O)Nc6ccc(F)cc6)CC5)cc4F)c3cn2)cn1 [Compound 38S, N-(3-fluoro-4-((7-(1-methyl-1H-pyrazol-4-yl)-1,6-naphthyridin-4-yl)oxy)phenyl)-N-(4-fluorophenyl)cyclopropyl-1,1-dicarboxamide]?
Answer: IC50 [1]: 1 to 10 nM; IC50 [2]: 1 to 10 nM

Question: What does the source list for CC(CN1CCOCC1)Oc1cc2nccc(Oc3ccc(NC(=O)C4(C(=O)Nc5ccc(F)cc5)CC4)cc3F)c2cn1 (stereo not drawn) [Compound 26S, N-(3-fluoro-4-((7-((1-morpholinopropan-2-yl)oxy)-1,6-naphthyridin-4-yl)oxy)phenyl)-N-(4-fluorophenyl) cyclopropyl-1,1-dicarboxamide]?
Answer: IC50 [1]: 10 to 100 nM; IC50 [2]: 100 to 1000 nM
